Measurements published in patent publication US10413517B2, “Composition and method for the treatment of neurological diseases and cerebral injury” (UNIVERSITY OF NOTRE DAME DU LAC, priority 2014, dated 2019).

Columns and labels:
Assay type in all cases: in vivo, mouse
histone H3 and H4 = assay: Histone acetylation in the brain (western blot); details: within an hour of i.p. administration; Vo 50 mg/Kg in PEG; HPBCD 2000 mg/Kg
Method: Npc1^nmf164 mice (6-7 weeks) were injected with either Vorinostat (50 mg/kg) or TCF through i.p route. Mice were sacrificed 1 hpi (1 hour post-injection) by asphyxiation using CO2. After homogenization of tissue, Histones were extracted using EpiQuik Total Histone extraction kit (Epigentek, NY, USA) as per manufacturer's instructions. Antibodies to Histone H3 (Lys14) and H4 (Lys5/8/12/16) from Millipore (CA, USA) were used in western blotting.

Calbindin1 transcripts = assay: qPCR of Calbindin1 transcripts in the brain; details: day 100, once weekly dosing; Vo 50 mg/Kg; 2×HPBCD 4000 mg/Kg; TCF
Method: (§1) Vorinostat (50 mg/Kg)—Vorinostat was first dissolved in DMSO (100 mg/ml) and then diluted with 9 volume of Polyethylene Glycol 400 (PEG). This drug solution was named as ‘solution A’. Solution A was diluted with equal volume of water where the final concentration of each component was as follows; Vorinostat, 5 mg/ml; DMSO, 5% and PEG, 45%. Mice were given weekly intraperitoneal (i.p) injections starting at 21 days. Vorinostat (100 mg/Kg)—Vorinostat was first dissolved in DMSO (200 mg/ml) and then mixed with 9 volumes of PEG. Rest of the methods and injections plan were as described above. HPBCD (4000 mg/Kg)—40% HPBCD solution prepared in water. Mice were given weekly i.p injections starting at 7 days. HPBCD (2000 mg/Kg)—20% HPBCD solution prepared in water. Mice were given weekly i.p injections starting at 7 days. TCF (Vorinostat, 50 mg/Kg+HPBCD, 2000 mg/Kg, DMSO, 5%+PEG, 45%)—To prepare the formulation, the ‘solution A’ was first prepared as described above and equal volume of 40% HPBCD solution was slowly layered on top of it. The solution was gently mixed for 10 min at RT on rocker set at medium speed. […]
(§2) Quantitative PCR (qPCR) was performed using Power SYBR Green RNA-to-CT 1-Step Kit and an ABI Prism 7500 Fast real-time PCR system (Applied Biosystems, Grand Island, USA). […] The relative amount of transcript was determined using comparative CT method. […]

Purkinje cells = assay: Calbindin immunofluorescence, Purkinje cell count in cerebellar sections; details: day 100, once weekly dosing
Method: Mice were sacrificed by asphyxiation using CO2. Harvested organs were immersed fixed in 10% neutral buffered formalin (˜4% formaldehyde) for 24 hrs at RT. The organs were subsequently stored in 70% alcohol at RT until transfer to paraffin. Paraffin-embedded tissue sections (4-5 μm) were dewaxed in xylene and alcohol. Calbindin antigen retrieval was done by pre-incubating deparaffinized samples with 0.05% proteinase K (Dako, Germany) in 50 mM Tris-HCl (pH 7.5) for 8 min at RT. CTSS and NPC1 was retrieved by boiling the sections in acidic condition for 30 min. Blocking was done either with 2% goat serum (for calbindin and NPC1) or 2% rabbit serum (for cathepsin S) for 30 min at RT. Sections were incubated with anti-calbindin (1:1000, C9848, Sigma), anti-cathepsin S (20 μg/ml, M-19, Santa Cruz Biotechnology), anti-NPC1 (custom made against human NPC1 protein, 20 μg/ml) overnight at 4° C. The appropriate FITC or TRITC-conjugated secondary IgG (MP Biomedicals, Solon, Ohio, USA) antibodies were used at 1:200 dilution. Sections were subsequently washed with PBS containing DAPI (0.5 μg/ml). Vectashield (Vector laboratories) was used as mounting medium and processed for fluorescence microscopy.
Tissue sections after IFA and filipin stained fibroblasts were visualized with 40× oil-immersion objective lens (NA 1.35). Filipin stain was visualized using DAPI filter. Digital image collection were performed using an Olympus IX inverted fluorescence microscope and a Photometrix cooled CCD camera (CH350/LCCD) driven by DeltaVision software from Applied Precision (Seattle, Wash., USA). DeltaVision software (softWoRx) was used to deconvolve these images. Images are single optical sections. Images were analyzed using ImageJ software (NIH, MD, USA).

Npc1 transcript = assay: qPCR of Npc1 transcript in brain; details: at 100 days
Method: as §1, §2

SMILES	acetylation of histone 3 or 4 (H3 or H4) in the brain (in words) (histone H3 and H4)	expression of calbindin transcripts in the brain (Calbindin1 transcripts)	Purkinje cells in the cerebellum (in words) (Purkinje cells)	Purkinje cells in the cerebellum (in words) (Purkinje cells; listed as Vo)	Npc1 transcript levels in the brain (Npc1 transcript)	Purkinje cells in the cerebellum (in words) (Purkinje cells; listed as 2×HPBCD)
O=C(CCCCCCC(=O)Nc1ccccc1)NO [vorinostat]	low levels of acetylation	no change or depressed levels of calbindin transcripts	no effect	Loss of Purkinje cells	little or no effect on brain Npc1 transcript levels	–
CC(O)COC[C@H]1O[C@@H]2O[C@H]3[C@H](O)[C@@H](O)[C@@H](O[C@H]4[C@H](O)[C@@H](O)[C@@H](O[C@H]5[C@H](O)[C@@H](O)[C@@H](O[C@H]6[C@H](O)[C@@H](O)[C@@H](O[C@H]7[C@H](O)[C@@H](O)[C@@H](O[C@H]8[C@H](O)[C@@H](O)[C@@H](O[C@H]1[C@H](O)[C@H]2O)O[C@@H]8COCC(C)O)O[C@@H]7COCC(C)O)O[C@@H]6COCC(C)O)O[C@@H]5COCC(C)O)O[C@@H]4COCC(C)O)O[C@@H]3COCC(C)O (stereo partly drawn) [HPBCD, 2-Hydroxypropyl-β-cyclodextrin]	neither vehicle control (PEG+DMSO) nor HPBCD stimulated significant acetylation	no change or depressed levels of calbindin transcripts	Few lightly stained Purkinje cells	–	little or no effect on brain Npc1 transcript levels	minor protection of Purkinje cell
